In patent US20140196172A1, “Organelle Targeting Nanocarriers” (Her Majesty the Queen in Right of Canada, as Repre sented …, priority 2011, published 2014):

Experiments:
[1] = tested on: chloroplasts of triticale protoplasts; assay: qRT-PCR of gfp mRNA, protoplasts transfected with pWCaadA16GFP; type: cell-based; conditions: gfp reporter construct
Text: FIG. 20 is a plot showing the level of expression (fold increase, average of 4 replicates) of GFP in triticale protoplasts transfected with the pWCaadA16GFP plasmid in the presence of cTP1 (SEQ ID NO: 6), cTP2 (SEQ ID NO: 7), cTP3 (SEQ ID NO: 8), cTP4 (SEQ ID NO: 9) or cTP5 (SEQ ID NO: 10) compared to the level of expression (fold increase) of the internal control elongation factor 1a (EF1a), as measured by quantitative real time PCR of mRNA levels.
Wheat chloroplast aadA16GFP reporter plasmid (pWCaadA16GFP, FIG. 12) is a 4212 base pair wheat specific plastid transformation vector, which targets insertions into the tml-tmA inverted repeat regions of the Triticum aestivum plastid genome at nucleotides 92850-93727 and 93794-94671 (GenBank accession No. AB042240.3). A multiple cloning site is introduced following the tml target insertion sequence. The selection marker gene is an organelle codon specific aad-gfp fusion gene, which facilitates a dual selection method of spectinomycin resistance through an aadA derivative and visual detection by GFP fluorescence (GenBank accession No. ABX39486; Khan and Maliga, Nat. Biotechnol. (1999 September) 17(9): 910-5). The selection marker gene is driven by the Triticum aestivum plastid genome promoter (psbA) at nucleotides 1282-1153 (GenBank accession No. AB042240.3). The aad-gfp fusion gene is terminated with the rice psbA terminator sequence derived from chloroplast transformation vector pVSR326 nucleotides 4014-4387 (GenBank accession No. AF527485.1).
(§1) The dsDNA construct (pWMaadA16GFP for mitochondrial expression or pWCaadA16GFP for expression in chloroplasts) is combined with the mTP (for mitochondrial expression) or cTP (for expression in chloroplasts) in a final volume of 100 μl of CPW solution. For experiments using mTP1 (SEQ ID NO: 1), mTP2 (SEQ ID NO: 2), mTP3 (SEQ ID NO: 3), or mTP5 (SEQ ID NO: 5), peptides (scaled up from 100 ng, at four times the concentration needed to cause a DNA shift in the gel mobility shift assay (Table 7)) are combined with the pWMaadA16GFP construct (5 μg). For experiments using the remaining oTPs, peptides (30 μg) are combined with the appropriate dsDNA construct (1.5 μg). The mixture is incubated for 10 minutes at room temperature, then incubated with isolated triticale mesophyll protoplasts (500 μl, 10^6 protoplasts/ml, prepared as described in Example 2) for 1 h in the dark at room temperature. CPW solution (500 μl) is added and the mixture is incubated in the dark for 24 h. The cells are imaged using confocal microscopy, as described in Example 2, using MitoTracker® Orange staining to visualize mitochondria and chlorophyll autofluorescence to visualize chloroplasts.
(§2) cDNA is generated using a First Strand Synthesis kit (Invitrogen). RNA (1 μg) is added to each sample and the manufacturer's protocol for synthesis followed, with the exception that the volume of the reaction mixture is increased from 20 μl to 30 μl. A negRT sample containing all reagents but no RNA is included in the cDNA synthesis as a negative control.
Standard curves are generated for both elongation factor 1a (EF1a) (internal control) and green fluorescent protein (GFP) (test) genes. The EF1a curve is generated by pooling 6 μl of each cDNA sample (excluding the negRT control), then carrying out a serial dilution of 0.5 for 5 more dilutions. […]
(§3) Real time PCR reactions are performed using QuantiTect™ SYBR™ Green PCR Master Mix (Qiagen) in a 20 μl reaction volume. […]

[2] = tested on: mitochondria of triticale protoplasts; assay: qRT-PCR of gfp mRNA, protoplasts transfected with pWMaadA16GFP; type: cell-based; conditions: gfp reporter construct
Text: FIG. 19 is a plot showing the level of expression (fold increase, average of 4 replicates) of GFP in triticale protoplasts transfected with the pWMaadA16GFP plasmid in the presence of mTP1 (SEQ ID NO: 1), mTP2 (SEQ ID NO: 2), mTP3 (SEQ ID NO: 3), mTP4 (SEQ ID NO: 4) or mTP5 (SEQ ID NO: 5) compared to the level of expression (fold increase) of the internal control elongation factor 1a (EF1a), as measured by quantitative real time PCR of mRNA levels; and
Wheat mitochondrial aadA16GFP reporter plasmid (pWMaadA16GFP, FIG. 11) is a 4587 base pair wheat specific mitochondrial transformation vector, which targets insertions into the fourth repeat region between the trnfM and rm18 gene cluster which is repeated three times in the Triticum aestivum mitochondrial genome. The insertion site is in the Triticum aestivum mitochondrial genome at nucleotides 300805-300878 and 300880-302834 (GenBank accession No. AP008982.1). A multiple cloning site is introduced following the tmfM target insertion sequence. The selection marker gene is an organelle codon specific aad-gfp fusion gene, which facilitates a dual selection method of spectinomycin resistance through an aadA derivative and visual detection by GFP fluorescence (GenBank accession No. ABX39486; Khan and Maliga, Nat. Biotechnol. (1999 September) 17(9): 910-5). The selection marker gene is driven by the Triticum aestivum mitochondrial atpA gene promoter (GenBank accession No. X54387.1). The aad-gfp fusion gene is terminated with the TpsbA terminator sequence derived from the Triticum aestivum mitochondrial genome at nucleotides 62871-62565 (GenBank accession No. AP008982.1).
as §1, §2
Standard curves are generated for both elongation factor 1a (EF1a) (internal control) and green fluorescent protein (GFP) (test) genes. […]
as §3

| Sequence | GFP expression by chloroplasts confirmed by qRT-PCR [1] | GFP expression by mitochondria confirmed by qRT-PCR [2] |
| --- | --- | --- |
| MAALIPAIASLPRAQVEKPHPMPVSTRPGLVS (listed as Triticum aestivum) [cTP4] | GFP is expressed |  |
| MQTLTASSSVSSIQRHRPHPAGRRSSSVTFS (listed as Triticum aestivum) [cTP2] | GFP is expressed |  |
| MFSYLPRYPLRAASARALVRATRPSYRSALLRYQ (listed as Triticum aestivum) [mTP1] |  | GFP is expressed |
| MAAWMRSLFSPLKKLWIRMH (Zea mays) [mTP2] |  | GFP is expressed |
| MLFRLRRSVRLRGLLA (listed as Arabidopsis thaliana) [mTP5] |  | GFP is expressed |
| MGGCVSTPKSCVGAKLR (listed as Arabidopsis thaliana) [cTP1] | GFP is expressed |  |
| MSSPPPLFTSCLPASSPSIRRDSTSGSVTSPLR (listed as Arabidopsis thaliana) [cTP5] | GFP is expressed |  |
| MKLLWRLILSRKW (listed as Arabidopsis thaliana) [mTP3] |  | GFP is expressed |
| MWWRRSRTNSLRYT (listed as Arabidopsis thaliana) [mTP4] |  | GFP is expressed |
